Source: patent publication US10966978B2, “Dose and regimen for HDM2-p53 interaction inhibitors” (Novartis AG, priority 2016, dated 2021)

System: platelets
Test: PK/PD model of thrombocytopenia (modeled platelet kinetic profiles)
Set-up: species or system human
Settings: regimen 1B (150 mg)
From the text: Based on individual PK and platelet counts data overtime a PK/PD model was established.
PK model: 1 compartment with biphasic absorption.
PD model: Adjusted Friberg model for thrombocytopenia including PLT transfusions and effect on HDM201 on proliferative cells and regulations.
The platelet kinetic profiles shown in FIG. 5 are modeled based on the following doses as tested in each regimen (in order from top to bottom in FIG. 5): […]

With `COc1ncc(-c2nc3c(n2C(C)C)[C@H](c2ccc(Cl)cc2)N(c2cc(Cl)cn(C)c2=O)C3=O)c(OC)n1` [HDM201, (S)-5-(5-Chloro-1-methyl-2-oxo-1,2-dihydro-pyridin-3-yl)-6-(4-chloro-phenyl)-2-(2,4-dimethoxy-pyrimidin-5-yl)-1-isopropyl-5,6-dihydro-1H-pyrrolo[3,4-d]imidazol-4-one] the “platelet kinetic profile, modeled, compared among regimens with single agent activity” value was “best overall platelet kinetic profile”.
